These molecules were tested against T1, human 5-HT6 receptor (Homo sapiens, UniProt P50406) (assay: Human 5-HT6 Receptor Binding Assay ([3H]LSD displacement, scintillation beads)). Details: membranes of CHO-K1 cells with recombinant human 5-HT6, 4 nM [3H]LSD; Table 1, class symbols; read-out: h5-HT6 (Ki).
T1 construct: host or cells: CHO-K1 cells, stably transfected; membranes prepared in house
Protocol: Human 5-HT6 Receptor Binding Assay
Membranes were prepared from CHO—K1 cells stably transfected with the human 5-HT6 receptor (Euroscreen; ES-316-C). The cells were grown in Gibco Advanced DMEM-F12 (Cat#12634010) containing 2% dialyzed FBS (Hyclone Cat#SH30079.03). The cells were harvested in phosphate buffered saline (PBS) containing 0.1 mM EDTA and pelleted by centrifugation (1000×g), the supernatant was discarded and the pellets were stored at −80° C. prior to membrane preparation. Membranes were prepared as previously described (J Bio Chem. 1992, 267 (14) 9844-51). Briefly, frozen cell pellet was resuspended in a lysis buffer containing 5 mM Tris-HCl (pH 7.5), 5 mM EDTA and 1 complete EDTA-free protease inhibitor tablet (Roche Applied Science, Indianapolis, Ind.) per 50 mL buffer, and homogenized with a tissue homogenizer. The cell lysate was then centrifuged at 40,000×g for 30 min at 4° C. to collect the membranes. The membrane pellets were washed in membrane buffer (50 mM Tris-HCl (pH 7.5), 0.6 mM EDTA, 5 mM MgCl2, 1 complete EDTA-free protease inhibitor tablet per 50 mL buffer) using a tissue homogenizer. The membranes were centrifuged at 40,000×g for 30 min at 4° C. and the pellets were resuspended in membrane buffer containing 250 mM sucrose, and protein concentration was determined using the Coomassie Plus kit (Pierce Biotechnology, Rockford, Ill.).
Membranes prepared from cells expressing recombinant human 5-HT6 receptor (h5-HT6) were resuspended in assay buffer containing 50 mM Tris HCl, (pH7.4), 4 mM CaCl2, 10 μg/mL saponin, and 0.1% (w/v) ascorbic acid. Membranes were preincubated using 1.75 μg membrane protein and 0.25 mg FlashBlue scintillation beads (PerkinElmer catalogue #FB001) per well at 4° for 30 min. […] Test compounds or assay controls for total and non-specific binding were diluted in DMSO as 100× solutions and serially diluted by half log concentrations on a Perkin Elmer JANUS Automated Workstation. Serotonin (10 μM final concentration) was used to determine non-specific binding in the assay. Plates were read using the Microbeta Trilux 1450 LSC and luminescence counter. Data were analyzed by nonlinear […] using the dose-response equation (variable slope) to calculate IC50 in XLfit4 (ID Business Solutions Inc.): y=(Bottom+((Top−Bottom)/(1+((IC50/x)^Hill slope))))
Ki value was then calculated according to the Cheng-Prusoff method using the equation below (Cheng and Prusoff, 1973): Ki,app=IC50/(1+[radioligand]/Kd))

T1 sequence (P50406 whole entry): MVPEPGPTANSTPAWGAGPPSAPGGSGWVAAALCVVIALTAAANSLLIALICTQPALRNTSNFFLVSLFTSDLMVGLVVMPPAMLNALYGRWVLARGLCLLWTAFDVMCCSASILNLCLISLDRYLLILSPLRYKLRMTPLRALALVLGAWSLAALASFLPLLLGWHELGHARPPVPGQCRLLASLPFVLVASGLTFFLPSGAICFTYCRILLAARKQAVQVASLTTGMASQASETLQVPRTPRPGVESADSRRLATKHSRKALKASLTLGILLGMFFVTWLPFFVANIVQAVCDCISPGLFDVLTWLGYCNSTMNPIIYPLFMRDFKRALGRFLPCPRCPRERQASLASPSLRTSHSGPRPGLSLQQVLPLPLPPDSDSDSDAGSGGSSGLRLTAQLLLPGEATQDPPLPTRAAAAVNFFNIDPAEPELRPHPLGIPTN

Ki | Structure (SMILES)
< 500 nM | CC1(C)NCCc2c1oc1cc(S(=O)(=O)c3cc[nH]c(=O)c3)ccc21 [Example 366]
< 500 nM | CC1(C)NCCc2c1oc1cc(S(=O)(=O)c3cccnc3N3CCOCC3)ccc21 [Example 368]
< 500 nM | O=S(=O)(c1ccc2c(c1)OC1CNCCC21)c1cccnc1OCC(F)(F)F (stereo not shown) [Example 394]
< 500 nM | O=S(=O)(Oc1ccc2c(c1)OC1CNCCC21)c1c(Cl)nc2sccn12 (stereo not shown) [Example 638]
< 500 nM | CC1(C)CNC2(CCOC2)c2oc3cc(S(=O)(=O)c4cccc(F)c4)ccc3c21 (racemic) [Example 46, 7-[(3-fluorophenyl)sulfonyl]-4,4-dimethyl-3,4,4′,5′-tetrahydro-2H-spiro[1-benzofuro[2,3-c]pyridine-1,3′-furan]]
< 500 nM | CC1OCCC12NCCc1c2oc2cc(S(=O)(=O)c3cccc(F)c3)ccc12 (single isomer, unassigned) [Example 61, 7-[(3-Fluorophenyl)sulfonyl]-2′-methyl-3,4,4′,5′-tetrahydro-2H-spiro[1-benzofuro[2,3-c]pyridine-1,3′-furan]]
< 500 nM | Cc1ccncc1S(=O)(=O)c1ccc2c3c(oc2c1)C(C)(C)NCC3 [Example 379]
< 500 nM | CC1(C)CNCc2oc3cc(S(=O)(=O)c4cc(F)cc(F)c4)ccc3c21 [Example 287]
> 1000 nM | Cc1ccc(NS(=O)(=O)c2ccc3c(c2)C2CCNCC2O3)cc1F (stereo not shown) [Example 851]
< 500 nM | O=S(=O)(Nc1ccc2c(c1)C1CCNCC1O2)c1ccc(Cl)c(Cl)c1 (stereo not shown) [Example 827]
< 500 nM | O=S(=O)(c1ccc(Cl)c(Cl)c1)c1ccc2c(c1)C1CCNCC1O2 (stereo not shown) [Example 172]
< 500 nM | CC(=O)NCC1(C)NCCc2c1oc1cc(S(=O)(=O)c3cccc(F)c3)ccc21 (stereo not shown) [Example 631, N-({7-[(3-fluorophenyl)sulfonyl]-1-methyl-1,2,3,4-tetrahydro[1]benzofuro[2,3-c]pyridin-1-yl}methyl)acetamide]
> 1000 nM | O=S(=O)(Nc1cccc(F)c1F)c1ccc2c(c1)C1CCNCC1O2 (stereo not shown) [Example 842]
< 500 nM | CC1(C)NCCc2c1oc1cc(S(=O)(=O)c3ccccc3)ccc21 [Example 292]
< 500 nM | O=S(=O)(c1cccc(Cl)c1Cl)c1cccc2c1OC1CNCCC21 (stereo not shown) [Example 338]
> 1000 nM | O=[N+]([O-])c1ccc(S(=O)(=O)c2ccc3c(c2)C2CCNCC2O3)cc1 (stereo not shown) [Example 177]
< 500 nM | CC1(CO)NCCc2c1oc1cc(S(=O)(=O)c3ccccc3)ccc21 (stereo not shown) [Example 525]
< 500 nM | O=S(=O)(c1cc(F)cc(OCC(F)(F)F)c1)c1ccc2c(c1)OC1CNCCC21 (stereo not shown) [Example 403]
< 500 nM | Cc1ccc(S(=O)(=O)Oc2ccc3c(c2)C2CCNCC2O3)cc1Cl (stereo not shown) [Example 719]
> 1000 nM | O=S(=O)(Oc1ccc2c(c1)OC1CN(C3CCC3)CCC21)c1ccc(Cl)cc1 (stereo not shown) [Example 800]
> 1000 nM | CC(C)S(=O)(=O)c1ccc2c3c(oc2c1)CNCC3 [Example 234]
< 500 nM | O=S(=O)(c1cccc(OCCCO)c1)c1ccc2c(c1)OC1CNCCC21 (stereo not shown) [Example 568]
> 1000 nM | O=S(=O)(c1ccc2oc3c(c2c1)CCNC3)C1CCCCC1 [Example 280]
< 500 nM | O=S(=O)(Oc1ccc2c(c1)OC1CNCCC21)c1c(Cl)nc2sccn12 (stereo not shown) [Example 792]
< 500 nM | Cc1ccc(S(=O)(=O)c2ccc3c4c(oc3c2)CNCC4)cc1 [Example 204]
> 1000 nM | [O-][S+](c1ccc2oc3c(c2c1)CCNC3)c1cccnc1OCC(F)(F)F (stereo not shown) [Example 447]
< 500 nM | CCOc1cc(F)cc(S(=O)(=O)c2ccc3c(c2)OC2CNCCC32)c1 (stereo not shown) [Example 413]

Ki | Structure (SMILES)
< 500 nM | O=S(=O)(c1cccc(Cl)c1)c1ccc2c3c(oc2c1)CNCC3 [Example 340, 7-[(3-chlorophenyl)sulfonyl]-1,2,3,4-tetrahydro[1]benzofuro[2,3-c]pyridine]
< 500 nM | Cc1ccc(C)c(S(=O)(=O)Oc2ccc3c(c2)C2CCNCC2O3)c1 (stereo not shown) [Example 704]
< 500 nM | O=S(=O)(c1ccc2oc3c(c2c1)CCNC3)c1cc(F)ccc1F [Example 273]
< 500 nM | CC1(C)NCCc2c1oc1cc(S(=O)(=O)c3cncc(Br)c3)ccc21 [Example 367]
< 500 nM | CC1(C)NCCc2c1oc1cc(S(=O)(=O)c3cncc(Cl)c3)ccc21 [Example 376]
< 500 nM | O=S(=O)(c1cccc(F)c1)c1ccc2oc3c(c2c1)CCNC3C1CCOC1 (stereo not shown) [Example 516]
< 500 nM | O=S(=O)(Oc1ccc2c(c1)OC1CNCCC21)c1ccc(-c2ccon2)s1 (stereo not shown) [Example 680]
< 500 nM | O=S(=O)(c1ccc2oc3c(c2c1)CCNC3)c1cccnc1OCC(F)(F)F [Example 448]
< 500 nM | O=S(=O)(c1ccc2c3c(oc2c1)CNCC3)c1cccc2cccnc12 [Example 346]
< 500 nM | [O-][S+](c1ccc2c3c(oc2c1)CNCC3)c1cc(F)ccc1F (stereo not shown) [Example 222]
< 500 nM | CC(C)c1ccc(S(=O)(=O)Oc2ccc3c(c2)OC2CNCCC32)cc1 (stereo not shown) [Example 657]
< 500 nM | CCCCC1NCCc2c1oc1cc(S(=O)(=O)c3cccc(Cl)c3)ccc21 (stereo not shown) [Example 499]
> 1000 nM | CC1(C)NCCc2c1oc1cc(S(=O)(=O)c3cc(Cl)cnc3O)ccc21 [Example 373]
> 1000 nM | O=S(=O)(Oc1ccc2c(c1)C1CCNCC1O2)c1ccc(F)cc1F (stereo not shown) [Example 712]
< 500 nM | Cc1cccc(S(=O)(=O)c2ccc3c4c(oc3c2)CNCC4)c1 [Example 221]
> 1000 nM | O=S(=O)(Oc1ccc2c(c1)C1CCNCC1O2)c1ccccc1 (stereo not shown) [Example 696]
< 500 nM | Cc1c(S(=O)(=O)Oc2ccc3c(c2)OC2CNCCC32)sc2ccc(Cl)cc12 (stereo not shown) [Example 796]
< 500 nM | O=S(=O)(c1ccc2c3c(oc2c1)CNCC3)c1cccnc1OCC(F)(F)F [Example 440]
< 500 nM | O=S(=O)(c1ccccc1)c1ccc2c3c(oc2c1)CN(CCCO)CC3 [Example 595]
500 to 1000 nM | CNC(=O)c1cccc(S(=O)(=O)c2ccc3c4c(oc3c2)CNCC4)c1 [Example 478]
< 500 nM | CC(C)COc1cc(F)cc(S(=O)(=O)c2ccc3c(c2)OC2CNCCC32)c1 (stereo not shown) [Example 402]
< 500 nM | O=S(=O)(c1cc(F)cc(F)c1)c1ccc2c(c1)OC1CNCCC21 (stereo not shown) [Example 164]
< 500 nM | O=S(=O)(c1cc(Cl)cc(Cl)c1)c1ccc2c(c1)OC1CNCCC21 (stereo not shown) [Example 155]
> 1000 nM | O=S(=O)(Oc1ccc2c(c1)C1CCNCC1O2)c1cccc2nsnc12 (stereo not shown) [Example 730]
500 to 1000 nM | O=S(=O)(Nc1ccc2c(c1)C1CCNCC1O2)c1cc2ccccc2o1 (stereo not shown) [Example 833]
< 500 nM | O=S(=O)(c1ccccc1-c1ccccc1)c1cccc2c1OC1CNCCC21 (stereo not shown) [Example 191]
< 500 nM | CC(=O)N(C)CCC1NCCc2c1oc1cc(S(=O)(=O)c3cccc(F)c3)ccc21 (racemic) [Example 538, N-(2-{7-[(3-fluorophenyl)sulfonyl]-1,2,3,4-tetrahydro[1]benzofuro[2,3-c]pyridin-1-yl}ethyl)-N-methylacetamide]

Structure (SMILES) | Ki
[O-][S+](c1cncc(Cl)c1)c1ccc2c(c1)OC1CNCCC21 (stereo not shown) [Example 391] | > 1000 nM
CC12CCNCC1Oc1ccc(S(=O)(=O)c3cc[n+]([O-])cc3)cc12 (racemic) [Example 14, 4a-methyl-6-[(1-oxidopyridin-4-yl)sulfonyl]-1,2,3,4,4a,9a-hexahydro[1]benzofuro[2,3-c]pyridine] | > 1000 nM
O=S(=O)(Oc1ccc2c(c1)OC1CNCCC21)c1ccccn1 (stereo not shown) [Example 689] | > 1000 nM
CC12CCNCC1Oc1ccc(OS(=O)(=O)c3ccccc3)cc12 (stereo not shown) [Example 759] | > 1000 nM
Ic1ccc2c3c([nH]c2c1)C1(CCCOC1)NCC3 (stereo not drawn) [Example 547, 7-Iodo-2,3,4,5′,6′,9-hexahydro-4′H-spiro[beta-carboline-1,3′-pyran]trifluoroacetate] | < 500 nM
Cc1cccc([S+]([O-])c2ccc3c(c2)OC2CNCCC32)n1 (stereo not shown) [Example 327] | > 1000 nM
CC12CCNCC1Oc1ccc(OS(=O)(=O)c3cccc4cccnc34)cc12 (stereo not shown) [Example 770] | > 1000 nM
[O-][S+](c1ccc2c(c1)OC1CNCCC21)c1cccnc1Cl (stereo not shown) [Example 389] | > 1000 nM
Cc1cccc(S(=O)(=O)c2ccc3c(c2)OC2CNCCC32)n1 (stereo not shown) [Example 328] | < 500 nM
O=S(=O)(c1cccc(F)c1)c1ccc2c3c([nH]c2c1)C1(CCCOC1)NCC3 (stereo not shown) [Example 317] | < 500 nM
